Test results as given in patent US20070167412A1, “HALOCOMBSTATINS AND METHODS OF SYNTHESIS THEREOF” (ARIZONA BOARD OF REGENTS, priority 2003, published 2007).

Tests used:
tubulin = assay: inhibition of [3H]colchicine binding to tubulin; conditions: 1.0 μM tubulin, 5.0 μM [3H]colchicine, inhibitor at 1.0 μM, 10 minutes at 37° C.
Procedure: Tubulin polymerization was evaluated by turbidimetry at 350 nm using Beckman DU7400/7500 spectrophotometers as described in detail elsewhere. […] Varying concentrations of drug were preincubated with 10 μM:M ([…]) purified tubulin (See Hamel, E., et al., Separation of Active Tubulin and Microtubule-associated Proteins by Ultracentrifiigation and Isolation of a Component Causing the Formation of Microtubule Bundles, Biochemistry 1984, 23, 4173-4184). Samples were chilled on ice, GTP (0.4 mM) was added, and polymerization was followed at 30° C. The parameter measured was extent of the reaction after 20 minutes. Coichicine binding was measured as described in detail previously. Reaction mixtures contained 1.0 μM :M tubulin, 5.0:M, [^3H]colchicine (from Dupont), and inhibitor at 1.0 μM:M. Incubation was for 10 minutes at 37° C.

Candida albicans = assay: reference broth microdilution susceptibility assay; format: cell-based; conditions: Table III
How it was run: (§1)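 Broth microdilution susceptibility testing per NCCLS reference methods (M7-A5 for aerobic bacteria, M27-A for yeasts).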

Cryptococcus neoformans = assay: reference broth microdilution susceptibility assay; format: cell-based; conditions: Table III
How it was run: as §1

Enterobacter cloacae = assay: reference broth microdilution susceptibility assay; format: cell-based; conditions: Table III
How it was run: (§2)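 Read-out is growth susceptibility in the NCCLS reference broth microdilution format, under M27-A for the two yeasts and under M7-A5 for the two bacteria.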

Enterococcus faecalis = assay: reference broth microdilution susceptibility assay; format: cell-based; conditions: Table III
How it was run: as §2

Escherichia coli = assay: reference broth microdilution susceptibility assay; format: cell-based; conditions: Table III
How it was run: as §1

Micrococcus luteus = assay: reference broth microdilution susceptibility assay; format: cell-based; conditions: Table III
How it was run: as §1

Neisseria gonorrhoeae = assay: reference broth microdilution susceptibility assay; format: cell-based; conditions: Table III
How it was run: as §2

Staphylococcus aureus = assay: reference broth microdilution susceptibility assay; format: cell-based; conditions: Table III
How it was run: as §2

[1] = tested on: Stenotrophomonas maltophilia; assay: reference broth microdilution susceptibility assay; format: cell-based; conditions: Table III
How it was run: as §2

Streptococcus pneumoniae = assay: reference broth microdilution susceptibility assay; format: cell-based; conditions: Table III
How it was run: as §2

## COc1ccc(/C=C\c2cc(I)c(OC)c(OC)c2)cc1O [Compound 14a, 3-Iodo-4,4′,5-trimethoxy-3′-hydroxy-z-stilbene]
tubulin
  Inhibition of colchicine binding % inhibition ± S.D.: 84 ± 7%
Candida albicans
  Range of minimum inhibitory concentration, Candida albicans: * (no inhibition at 64 μg/ml)
Cryptococcus neoformans
  Range of minimum inhibitory concentration, Cryptococcus neoformans: 32 to 64 µg/mL
Enterobacter cloacae
  Range of minimum inhibitory concentration, Enterobacter cloacae: * (no inhibition at 64 μg/ml)
Enterococcus faecalis
  Range of minimum inhibitory concentration, Enterococcus faecalis: * (no inhibition at 64 μg/ml)
Escherichia coli
  Range of minimum inhibitory concentration, Escherichia coli: * (no inhibition at 64 μg/ml)
Micrococcus luteus
  Range of minimum inhibitory concentration, Micrococcus luteus: 16 to 32 µg/mL
Neisseria gonorrhoeae
  Range of minimum inhibitory concentration, Neisseria gonorrhoeae: 16 to 32 µg/mL
Staphylococcus aureus
  Range of minimum inhibitory concentration, Staphylococcus aureus: * (no inhibition at 64 μg/ml)
[1]
  Range of minimum inhibitory concentration, Stenotrophomonas maltophilia: * (no inhibition at 64 μg/ml)
Streptococcus pneumoniae
  Range of minimum inhibitory concentration, Streptococcus pneumoniae: 64 µg/mL
